Measurements reported in patent US12139508B2, “Steroid derivative regulators, method for preparing the same, and uses thereof” (JIANGSU HANSOH PHARMACEUTICAL GROUP CO., LTD., priority 2018, dated 2024).
pIC50: −log10 of the molar value.

Target: GABA-A receptor
Assay: 35S-TBPS binding assay (GABAA receptor binding ability test)
Parameters: species or system Sprague-Dawley rat
Conditions: rat cerebral cortex cell membrane, 5 μM GABA, 2 nM 35S-TBPS; read-out: 35S-TBPS bindng test: IC50 on inhibiting the TBPS binding activity
Protocol: 1.2 Experimental Procedures 1.2.1 Extraction of Cerebral Cortex Cell Membrane:
1. The cerebral cortex of male Sprague-Dawley rat was isolated.
2. A pre-chilled 0.32 M sucrose solution (one tablet of protease inhibitor was added per 100 ml) was added to the cerebral cortex (the volume of sucrose solution was 10 times the volume of the cerebral cortex). The mixture was crushed with a 50 mL glass tissue homogenizer in batches and mixed well.
3. The mixture was centrifuged at 1500 g, 4° C. for 10 minutes, and the supernatant was collected.
4. The mixture was centrifuged at 20000 g, 4° C. for 30 minutes, and the supernatant was discarded.
5. The precipitate was resuspended with the pre-chilled phosphate buffer saline (PBS) (one tablet of protease inhibitor was added per 100 ml). An average of 4 ml of PBS was added per rat, and the mixture was mixed well by a glass tissue homogenizer.
6. The mixture was centrifuged at 10000 g, 4° C. for 10 minutes, and the supernatant was discarded.
7. Steps 5 and 6 were repeated three times.
8. Finally, the precipitate was resuspended with 4 volumes of PBS. The resulting solution was dispensed, frozen in liquid nitrogen, and stored at −80° C.
9. The protein concentration was measured by the bicinchoninic acid (BCA) method.
1.2.2 ^35S-TBPS Binding Assay
1. 230 μL of PBS was added to each well of a well plate with 1.1 ml volume.
2. 60 μL of the cerebral cortex cell membrane (5 μg/μL) solution was added to each well, and the mixture was mixed well.
3. The test compound (3 μL per well) was added, and the plate was incubated at 25° C. for 5 minutes. The DMSO concentration was 1%. The initial compound concentration was 1 μM, and a 3-fold dilution in gradient was carried out to obtain a total of 8 gradients and 2 replicates. 1% DMSO was used as a negative control, and 10 μM P026-2 was used as a positive control.
4. GABA was added at a final concentration of 5 μM, and incubated at 25° C. for 5 minutes. 1 mM GABA solution was formulated, and 1.5 μL of the solution was added to each well.
5. ^35S-TBPS was added at a final concentration of 2 nM. The concentration of isotope mother solution was 9.7 μM. After dilution with PBS for 100 times, 6 μL of the diluted isotope solution was added to each well.
6. The plate was incubated at 4° C. for 20 hours.
7. The FilterMate GF/C plate was pre-treated with 0.5% PEI, and incubated at 4° C. for 1 hour.
8. The FilterMate GF/C plate was washed with Universal Harvester twice, 50 ml PBS each time.
9. The reaction solution was transferred to the GF/C plate, and each well was washed 4 times with 900 μL of PBS.
10. The washed GF/C plate was placed at 55° C. and dried for 10 minutes.
11. 40 μL of scintillation solution was added to each well, and the CPM value was read with TopCount.
1.2.3 Experimental Data Processing Method:
In the experiment, the CPM (counts per minute) value was read with TopCount. According to the readings of the High control (DMSO) and the Low control ([…] of the positive compound) experimental groups, the […] inhibition was calculated based on the following formula: % Inhibition=100×(CPMHigh control−CPMSample)/(CPMHigh control−CPMLow control)
The IC50 of the compound was calculated according to the following 4-parameter nonlinear logic formula: Y=Bottom+(Top−Bottom)/(1+10^((Log IC50−X)*Hill Slope)),
wherein: • X represents the log of compound concentration, • Y represents the 0 Inhibition.
The effect of the compound of the present invention on the TBPS binding activity was determined by the above test, and the measured IC50 values are shown in Table 1.

## C[C@@]1(O)CC[C@H]2[C@H](CC[C@@H]3[C@@H]2CC[C@@]2(C)[C@H]3[C@@H]3C[C@@H]3[C@@H]2C(=O)Cn2ccnc2)C1 [Example 98, 1-((2R,4aS,4bR,6aS,7S,7aS,8aR,8bR,8cR,10aR)-2-Hydroxy-2,6a-dimethyloctadecahydrocyclopropa[4,5]cyclopenta[1,2-a]phenanthren-7-yl)-2-(1H-imidazol-1-yl)ethan-1-one]
  pIC50: 7.42

## Cc1nnnn1CC(=O)[C@H]1[C@H]2C[C@H]2[C@H]2[C@@H]3CC[C@@H]4C[C@](C)(O)CC[C@@H]4[C@H]3CC[C@@]21C [Example 101, 1-((2R,4aS,4bR,6aS,7S,7aS,8aR,8bR,8cR,10aR)-2-Hydroxy-2,6a-dimethyloctadecahydrocyclopropa[4,5]cyclopenta[1,2-a]phenanthren-7-yl)-2-(5-methyl-1H-tetrazol-1-yl)ethan-1-one]
  pIC50: 7.94

## C[C@@]1(O)CC[C@H]2[C@H](CC[C@@H]3[C@@H]2CC[C@@]2(C)[C@H]3[C@@H]3C[C@@H]3[C@@H]2C(=O)Cn2cc(C(=O)N3CCC3)cn2)C1 [Example 102, 2-(4-(Azetidine-1-carbonyl)-1H-pyrazol-1-yl)-1-((2R,4aS,4bR,6aS,7S,7aS,8aR,8bR,8c R,10aR)-2-hydroxy-2,6a-dimethyloctadecahydrocyclopropa[4,5]cyclopenta[1,2-a]phenanthren-7-yl)ethan-1-one]
  pIC50: 7.19

## CSc1cnn(CC(=O)[C@H]2[C@H]3C[C@H]3[C@H]3[C@@H]4CC[C@@H]5C[C@](C)(O)CC[C@@H]5[C@H]4CC[C@@]32C)c1 [Example 122, 1-((2R,4aS,4bR,6aS,7S,7aS,8aR,8bR,8cR,10aR)-2-Hydroxy-2,6a-dimethyloctadecahydrocyclopropa[4,5]cyclopenta[1,2-a]phenanthren-7-yl)-2-(4-(methylthio)-1H-pyrazol-1-yl)ethan-1-one]
  pIC50: 7.34

## C[C@@]1(O)CC[C@H]2[C@H](CC[C@@H]3[C@@H]2CC[C@@]2(C)[C@H]3[C@@H]3C[C@@H]3[C@@H]2C(=O)COc2ccc(C#N)cc2F)C1 [Example 125, 3-Fluoro-4-(2-((2R,4aS,4bR,6aS,7S,7aS,8aR,8bR,8cR,10aR)-2-hydroxy-2,6a-dimethyloctadecahydrocyclopropa[4,5]cyclopenta[1,2-a]phenanthren-7-yl)-2-oxoethoxy)benzonitrile]
  pIC50: 7.51

## C[C@@]1(O)CC[C@H]2[C@H](CC[C@@H]3[C@@H]2CC[C@@]2(C)[C@H]3[C@@H]3C[C@@H]3[C@@H]2C(=O)COc2ccc(F)cc2C#N)C1 [Example 126, 5-Fluoro-2-(2-((2R,4aS,4bR,6aS,7S,7aS,8aR,8bR,8cR,10aR)-2-hydroxy-2,6a-dimethyloctadecahydrocyclopropa[4,5]cyclopenta[1,2-a]phenanthren-7-yl)-2-oxoethoxy)benzonitrile]
  pIC50: 8.31

## C[C@@]1(O)CC[C@H]2[C@H](CC[C@@H]3[C@@H]2CC[C@@]2(C)[C@H]3[C@@H]3C[C@@H]3[C@@H]2C(=O)Cn2nc(C#N)cc2C#N)C1 [Example 127, 1-(2-((2R,4aS,4bR,6aS,7S,7aS,8aR,8bR,8cR,10aR)-2-Hydroxy-2,6a-dimethyloctadecahydrocyclopropa[4,5]cyclopenta[1,2-a]phenanthren-7-yl)-2-oxoethyl)-1H-pyrazole-3,5-dicarbonitrile]
  pIC50: 8.21

## C[C@@]1(O)CC[C@H]2[C@H](CC[C@@H]3[C@@H]2CC[C@@]2(C)[C@H]3[C@@H]3C[C@@H]3[C@@H]2C(=O)Cn2cc(-c3ncco3)cn2)C1 [Example 128, 1-((2R,4aS,4bR,6aS,7S,7aS,8aR,8bR,8cR,10aR)-2-Hydroxy-2,6a-dimethyloctadecahydrocyclopropa[4,5]cyclopenta[1,2-a]phenanthren-7-yl)-2-(4-(oxazol-2-yl)-1H-pyrazol-1-yl)ethan-1-one]
  pIC50: 7.80

## C[C@@H]1C[C@H](C(=O)Cn2ccc(C(F)(F)F)n2)[C@@]2(C)CC[C@H]3[C@@H](CC[C@@H]4C[C@](C)(O)CC[C@@H]43)[C@H]12 [Example 131, 1-((3R,5R,8R,9R,10S,13S,14S,15R,17S)-3-Hydroxy-3,13,15-trimethylhexadecahydro-1H-cyclopenta[a]phenanthren-17-yl)-2-(3-(trifluoromethyl)-1H-pyrazol-1-yl)ethan-1-one]
  pIC50: 8.10

## C[C@@H]1C[C@H](C(=O)Cn2ccnn2)[C@@]2(C)CC[C@H]3[C@@H](CC[C@@H]4C[C@](C)(O)CC[C@@H]43)[C@H]12 [Example 132, 1-((3R,5R,8R,9R,10S,13S,14S,15R,17S)-3-Hydroxy-3,13,15-trimethylhexadecahydro-1H-cyclopenta[a]phenanthren-17-yl)-2-(1H-1,2,3-triazol-1-yl)ethan-1-one]
  pIC50: 7.61

## C[C@@H]1C[C@H](C(=O)Cn2cc(C(=O)N3CCC3)cn2)[C@@]2(C)CC[C@H]3[C@@H](CC[C@@H]4C[C@](C)(O)CC[C@@H]43)[C@H]12 [Example 133, 2-(4-(Azetidine-1-carbonyl)-1H-pyrazol-1-yl)-1-((3R,5R,8R,9R,10S,13S,14S,15R,17S)-3-hydroxy-3,13,15-trimethylhexadecahydro-1H-cyclopenta[a]phenanthren-17-yl)ethan-1-one]
  pIC50: 7.75

## C[C@@H]1C[C@H](C(=O)CN2C(=O)CSC2=O)[C@@]2(C)CC[C@H]3[C@@H](CC[C@@H]4C[C@](C)(O)CC[C@@H]43)[C@H]12 [Example 136, 3-(2-((3R,5R,8R,9R,10S,13S,14S,15R,17S)-3-Hydroxy-3,13,15-trimethylhexadecahydro-1H-cyclopenta[a]phenanthren-17-yl)-2-oxoethyl)thiazolidine-2,4-dione]
  pIC50: 7.58

## CC[C@@H]1C[C@H](C(=O)Cn2nnc(C)n2)[C@@]2(C)CC[C@H]3[C@@H](CC[C@@H]4C[C@](C)(O)CC[C@@H]43)[C@H]12 [Example 139, 1-((3R,5R,8R,9R,10S,13S,14S,15R,17S)-15-Ethyl-3-hydroxy-3,13-dimethylhexadecahydro-1H-cyclopenta[a]phenanthren-17-yl)-2-(5-methyl-2H-tetrazol-2-yl)ethan-1-one]
  pIC50: 7.57

## CC[C@@H]1C[C@H](C(=O)Cn2nc(C#N)cc2C#N)[C@@]2(C)CC[C@H]3[C@@H](CC[C@@H]4C[C@](C)(O)CC[C@@H]43)[C@H]12 [Example 142, 1-(2-((3R,5R,8R,9R,10S,13S,14S,15R,17S)-15-Ethyl-3-hydroxy-3,13-dimethylhexadecahydro-1H-cyclopenta[a]phenanthren-17-yl)-2-oxoethyl)-1H-pyrazole-3,5-dicarbonitrile]
  pIC50: 7.79

## C[C@@]1(O)CC[C@H]2[C@H](CC[C@@H]3[C@@H]2CC[C@@]2(C)[C@H]3[C@H](C3CC3)C[C@@H]2C(=O)Cn2ccc(C(F)(F)F)n2)C1 [Example 144, 1-((3R,5R,8R,9R,10S,13S,14S,15S,17S)-15-Cyclopropyl-3-hydroxy-3,13-dimethylhexadecahydro-1H-cyclopenta[a]phenanthren-17-yl)-2-(3-(trifluoromethyl)-1H-pyrazol-1-yl)ethan-1-one]
  pIC50: 7.73
